Reference: ChEMBL document CHEMBL1909046, “DrugMatrix in vitro pharmacology data”

Experiments:
[1] = molecular target: T1, Muscarinic acetylcholine receptor M4 (Homo sapiens, UniProt P08173); assay type: cell membranes, CHO-K1, Membrane; conditions: cho-k1; also: in other assays of this panel Not Active means under 50% inhibition at 10 µM
T1 sequence (P08173 whole entry): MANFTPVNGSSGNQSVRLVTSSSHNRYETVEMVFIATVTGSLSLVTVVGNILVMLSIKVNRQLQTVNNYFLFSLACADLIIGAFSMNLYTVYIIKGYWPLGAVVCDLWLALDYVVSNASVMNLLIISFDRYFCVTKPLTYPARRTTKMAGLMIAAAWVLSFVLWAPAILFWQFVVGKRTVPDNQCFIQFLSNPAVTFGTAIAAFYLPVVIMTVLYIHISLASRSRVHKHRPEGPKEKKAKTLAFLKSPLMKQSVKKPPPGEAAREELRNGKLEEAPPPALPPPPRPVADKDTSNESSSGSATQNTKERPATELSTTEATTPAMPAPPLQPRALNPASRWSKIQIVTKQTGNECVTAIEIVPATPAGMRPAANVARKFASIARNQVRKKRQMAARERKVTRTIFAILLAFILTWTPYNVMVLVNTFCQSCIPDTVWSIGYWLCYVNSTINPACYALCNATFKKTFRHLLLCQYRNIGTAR

[2] = molecular target: Adenosine receptor A2a (Homo sapiens, UniProt P29274); assay: DRUGMATRIX: Adenosine A2A radioligand binding (ligand: […]); assay type: cell membranes, HEK293, Membrane; conditions: hek293; Not Active = under 50% inhibition at 10 µM
[3] = molecular target: T2, Cathepsin G (Homo sapiens, UniProt P08311); assay type: tissue-based; conditions: neutrophil;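 also: inhibition of Cathepsin G enzyme activity, tested on an AMC-conjugated peptide substrate; in other assays of this panel Not Active means under 50% inhibition at 10 µM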
T2 sequence (P08311 whole entry): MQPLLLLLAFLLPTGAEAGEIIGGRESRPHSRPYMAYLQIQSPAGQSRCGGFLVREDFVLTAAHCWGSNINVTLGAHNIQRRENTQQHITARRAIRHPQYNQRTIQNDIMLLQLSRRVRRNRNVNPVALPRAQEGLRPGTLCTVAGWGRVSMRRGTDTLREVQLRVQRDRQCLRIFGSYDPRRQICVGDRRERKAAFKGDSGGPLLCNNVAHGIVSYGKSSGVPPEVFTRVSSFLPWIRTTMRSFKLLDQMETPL

[4] = molecular target: Sodium-dependent dopamine transporter (Homo sapiens, UniProt Q01959); assay: DRUGMATRIX: Dopamine Transporter radioligand binding (ligand: [125I] RTI-55); assay type: cell membranes, CHO-K1, Membrane; conditions: Not Active = under 50% inhibition at 10 µM
[5] = molecular target: Acetylcholinesterase (Homo sapiens, UniProt P22303); assay: DRUGMATRIX: Acetylcholinesterase enzyme inhibition (substrate: acetylthiocholine); assay type: cell-based, HEK293; conditions: hek293; Not Active = under 50% inhibition at 10 µM
[6] = molecular target: Histamine H2 receptor (Homo sapiens, UniProt P25021); assay type: cell membranes, CHO-K1, Membrane; also: in other assays of this panel Not Active means under 50% inhibition at 10 µM
Sequence of Histamine H2 receptor (P25021 whole entry): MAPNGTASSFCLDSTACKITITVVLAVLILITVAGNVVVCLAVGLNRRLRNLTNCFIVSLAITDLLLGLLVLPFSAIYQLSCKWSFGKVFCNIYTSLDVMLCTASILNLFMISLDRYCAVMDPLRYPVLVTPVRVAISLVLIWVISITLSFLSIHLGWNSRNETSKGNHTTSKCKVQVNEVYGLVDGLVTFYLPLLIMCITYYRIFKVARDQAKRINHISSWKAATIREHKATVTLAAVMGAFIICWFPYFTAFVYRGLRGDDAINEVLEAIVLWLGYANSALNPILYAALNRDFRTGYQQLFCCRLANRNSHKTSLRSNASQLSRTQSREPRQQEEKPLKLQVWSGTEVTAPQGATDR

Sequence of Acetylcholinesterase (P22303 whole entry): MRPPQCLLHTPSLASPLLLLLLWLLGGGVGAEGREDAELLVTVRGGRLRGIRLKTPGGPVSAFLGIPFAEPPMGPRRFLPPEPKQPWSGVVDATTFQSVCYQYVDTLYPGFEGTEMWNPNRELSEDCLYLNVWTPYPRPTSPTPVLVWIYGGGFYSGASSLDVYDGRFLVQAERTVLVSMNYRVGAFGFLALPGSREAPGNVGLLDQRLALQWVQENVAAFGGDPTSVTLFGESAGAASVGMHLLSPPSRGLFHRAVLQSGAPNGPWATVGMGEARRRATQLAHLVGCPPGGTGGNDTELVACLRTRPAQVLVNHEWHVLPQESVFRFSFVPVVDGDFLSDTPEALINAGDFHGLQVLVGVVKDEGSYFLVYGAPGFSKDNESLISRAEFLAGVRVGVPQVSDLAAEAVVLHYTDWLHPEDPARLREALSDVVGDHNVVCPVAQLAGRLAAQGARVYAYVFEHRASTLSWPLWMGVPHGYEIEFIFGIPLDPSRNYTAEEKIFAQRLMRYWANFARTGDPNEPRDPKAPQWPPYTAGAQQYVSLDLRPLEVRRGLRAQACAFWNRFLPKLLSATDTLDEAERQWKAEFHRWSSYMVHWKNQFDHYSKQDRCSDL
Sequence of Sodium-dependent dopamine transporter (Q01959 whole entry): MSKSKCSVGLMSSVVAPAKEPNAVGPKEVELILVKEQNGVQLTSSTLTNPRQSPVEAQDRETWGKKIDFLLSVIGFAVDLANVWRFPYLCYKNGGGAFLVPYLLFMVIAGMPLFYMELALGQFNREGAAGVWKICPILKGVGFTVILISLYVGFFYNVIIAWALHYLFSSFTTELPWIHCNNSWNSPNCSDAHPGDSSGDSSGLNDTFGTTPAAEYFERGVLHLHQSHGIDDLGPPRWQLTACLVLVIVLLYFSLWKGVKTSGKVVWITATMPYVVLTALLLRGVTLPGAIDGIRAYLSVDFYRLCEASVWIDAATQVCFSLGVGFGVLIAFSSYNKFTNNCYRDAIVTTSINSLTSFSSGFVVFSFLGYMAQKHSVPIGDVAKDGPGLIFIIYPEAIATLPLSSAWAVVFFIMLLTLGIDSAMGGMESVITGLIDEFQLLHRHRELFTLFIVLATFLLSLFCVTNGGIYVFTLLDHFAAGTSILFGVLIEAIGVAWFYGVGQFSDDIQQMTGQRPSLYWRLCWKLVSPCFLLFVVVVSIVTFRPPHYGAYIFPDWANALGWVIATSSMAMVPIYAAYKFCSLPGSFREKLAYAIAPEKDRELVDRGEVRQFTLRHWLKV
Sequence of Adenosine receptor A2a (P29274 whole entry): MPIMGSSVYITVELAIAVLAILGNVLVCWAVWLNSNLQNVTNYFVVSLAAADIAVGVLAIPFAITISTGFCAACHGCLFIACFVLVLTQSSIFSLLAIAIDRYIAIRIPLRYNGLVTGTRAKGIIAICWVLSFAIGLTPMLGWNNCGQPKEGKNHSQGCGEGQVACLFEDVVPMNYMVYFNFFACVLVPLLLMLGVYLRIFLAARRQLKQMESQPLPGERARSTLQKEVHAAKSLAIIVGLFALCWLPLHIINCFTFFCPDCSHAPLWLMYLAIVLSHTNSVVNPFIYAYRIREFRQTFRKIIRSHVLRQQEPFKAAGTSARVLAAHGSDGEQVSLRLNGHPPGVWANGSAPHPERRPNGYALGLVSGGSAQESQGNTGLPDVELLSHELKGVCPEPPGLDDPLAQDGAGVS

Row | Structure (SMILES) | IC50 [1] | IC50 [2] | IC50 [3] | IC50 ([4]; cho-k1) | IC50 [5] | IC50 ([6]; cho-k1) | IC50 ([4]; read-out: IC50) | Ki ([4]; read-out: Ki) | IC50 ([6]; read-out: IC50) | Ki ([6]; read-out: Ki)
1 | Nc1cc(N2CCCCC2)nc(N)[n+]1[O-] [MINOXIDIL] | Not Active | Not Active | Not Active | Not Active | Not Active | Not Active | – | – | – | –
2 | CNCCC(Oc1ccc(C(F)(F)F)cc1)c1ccccc1 (stereo unspecified) [FLUOXETINE] | Not Active | Not Active | Not Active | Not Active | Not Active | Not Active | – | – | – | –
3 | COc1c2occc2cc2ccc(=O)oc12 [METHOXSALEN] | Not Active | Not Active | Not Active | Not Active | Not Active | Not Active | – | – | – | –
4 | Cc1c(C)c2c(c(C)c1O)CCC(C)(CN1CCN(c3cc(N4CCCC4)nc(N4CCCC4)n3)CC1)O2 (stereo unspecified) | Not Active | Not Active | Not Active | – | Not Active | Not Active | 13.4 µM | 10.6 µM | – | –
5 | CS(=O)(=O)c1ccc([C@@H](O)[C@@H](CO)NC(=O)C(Cl)Cl)cc1 [THIAMPHENICOL] | Not Active | Not Active | Not Active | Not Active | Not Active | Not Active | – | – | – | –
6 | Cc1ccc(NC(=O)c2ccc(CN3CCN(C)CC3)cc2)cc1Nc1nccc(-c2cccnc2)n1 [IMATINIB] | Not Active | Not Active | Not Active | Not Active | Not Active | – | – | – | 1.96 µM | 1.93 µM
7 | Clc1ccccc1CN1CCc2sccc2C1 [TICLOPIDINE] | Not Active | Not Active | Not Active | Not Active | Not Active | Not Active | – | – | – | –
8 | CC(C)Oc1ccc2c(=O)c(-c3ccccc3)coc2c1 [IPRIFLAVONE] | Not Active | Not Active | Not Active | Not Active | Not Active | Not Active | – | – | – | –
9 | CCN1CCC[C@H]1CNC(=O)c1cc(S(N)(=O)=O)ccc1OC [LEVOSULPIRIDE] | Not Active | Not Active | Not Active | Not Active | Not Active | Not Active | – | – | – | –
